Values joined by “and” are separate entries in the source; they are usually repeats but may differ in a detail not shown here. Equal values may be shown once. “Also recorded” adds a separate entry of the source. Where a SMILES comes first, the peptide text is derived from it. [ ]: non-standard residue; d: D form. The star is where a group is joined. Nle = CCCC[C@H](N)C(=O)O; Hexanoyl = CCCCCC(=O)*; Ahx = NCCCCCC(=O)O
Experiments:
[1] = test system: hippocampal neurons; assay: Immunocytochemistry: correlation of spines with synaptic markers; format: cell-based, rat; settings: 10^−12 M, 5 days
Procedure: (§1) Transfected neurons were treated, fixed and stained. Briefly, cells were permeablized with 0.1% Triton X-100 detergent (Bio-Rad; Hercules, Calif.) for 10 minutes. An 8% bovine serum albumin (Intergen Company; Burlington, Mass.) in PBS was used to prevent non-specific binding for one hour at R.T.; Primary antibody incubations were at a 1:2500 dilution (see below) in 1% BSA in PBS at 4° C. overnight. Secondary antibody, 1:3000 Alexafluor 488 goat-anti-mouse (Invitrogen: Carlsbad, Calif.) was applied for two hours at room temperature. Coverslips were mounted with ProLong Gold anti-fade reagent (Invitrogen; Carlsbad, Calif.) and all washes were done with PBS. Imaging and analysis were performed as described above. For presynaptic excitatory transmission the VGLUT1 (Synaptic Systems, Goettingen, Germany) marker (Balschun, Moechars et al.) was employed and for general presynaptic transmission synapsin1 (Synaptic Systems, Goettingen, Germany) (Ferreira and Rapoport 2002) was applied. A postsynaptic function was established by PSD-95 (Milipore, Billerica, Mass.) (El-Husseini, Schnell et al. 2000). In each instance the total number of spines was counted for the treatment groups, control, Nle1-AngIV and Dihexa, to ensure an active phenotype. The total number of actin enriched spines adjacent to VGLUT1 or Synapsin were counted and converted to a percentage as the percent correlation of treatment-induced spines to presynaptic markers is a strong indicator of ability to transmit excitatory signals.
as §1, with “fixed and stained as previously described in Chapter two. Briefly, cells” for “fixed and stained. Briefly, cells”, “enriched spines (red) adjacent to” for “enriched spines adjacent to”

[2] = test system: c-Met; assay: Augmentation of HGF-dependent c-Met phosphorylation in HEK293 cells; format: cell-based, human; settings: HEK 293 cells treated with HGF+/−Dihexa
Procedure: augmentation of HGF-dependent c-Met phosphorylation in HEK293 cells, or 2) augmentation of HGF-dependent cell scattering in MDCK cells. All the compounds in Family one were tested using the c-Met phosphorylation assay. […]
Human embryonic kidney cells 293 (HEK293), Madin Darby canine kidney cells (MDCK), and B16F10 murine melanoma cells were grown in DMEM, 10% fetal bovine serum (FBS). Cells were grown to 90-100% confluency before use. For most but not all studies HEK and MDCK cells were serum starved for 24 hours prior to the initiation of drug treatment.
HEK293 cells were seeded in 6 well tissue culture plates and grown to 95% confluency in DMEM containing 10% FBS. The cells were serum deprived for 24 hours prior to the treatment to reduce the basal levels of phospho-Met. […] The lysate was clarified by centrifugation at 15,000 g for 15 minutes, protein concentrations were determined using the BCA total protein assay, and then appropriate volumes of the lysates were diluted with 2× reducing Laemmli buffer and heated for ten minutes at 95° C. […] Proteins were visualized using the Supersignal West Pico Chemiluminescent Substrate system (Pierce, Fenton, Mo.) and molecular weights determined by comparison to protein ladders (BenchMark, Invitrogen; and Kaleidoscope, BioRad). Images were digitized and analyzed using a UVP phosphoimager.

[3] = Metabolic stability in rat serum; format: in vitro ADME
[4] = test system: aged rats; assay: Morris water maze, aged rat model; format: in vivo; settings: aged rats of mixed sex; oral Dihexa 2 mg/kg/day, 8 days
Procedure: Swim speed was determined from these values.

[5] = Brain distribution of 3H-Dihexa after carotid infusion; format: in vivo, rat
Procedure: FIG. 44. […] Rats fitted with a carotid cannula were anesthetized and infused with 0.5 ml of isotonic saline containing 10 μCi of 3H-Dihexa and 2 μCi ^14C-Inulin, a vascular marker. Thirty minutes after infusion rats were decapitated, the brains removed, and various brain regions dissected. The tissues were then weighed and solubilized with NCS and 10 ml of scintillation was added. Samples were counted with a scintillation counter using two different windows to quantitate both ^3H and ^14C counts. ^3H/^14Cs were determined so that blood derived Dihexa contamination of tissues could be determined. The average ^3H/^14C from blood was 1687.

t1/2 in rat serum [3] [h] | Distribution into brain regions ([5]; thirty minutes after carotid infusion of 3H-Dihexa with 14C-Inulin) | Brain level relative to blood ([5]; thirty minutes after delivery) [× blood] | Average 3H/14C from blood ([5]; thirty minutes after infusion) | SMILES | % Correlation PSD-95 [1] [%] | % Correlation Synapsin [1] [%] | % Correlation VGLUT1 [1] [%] | Number of spines/50 μm (PSD-95 experiment) [1] [spines/50 μm] | Number of spines/50 μm (Synapsin experiment) [1] [spines/50 μm] | Number of spines/50 μm (VGLUT1 experiment) [1] | Effect on HGF activation (phosphorylation) of c-Met [2] | Water maze performance of aged rats vs untreated controls [4]
 |  |  |  | CCCC[C@H](N)C(=O)N[C@@H](Cc1ccc(O)cc1)C(=O)N[C@H](C(=O)N[C@@H](Cc1c[nH]cn1)C(=O)N1CCC[C@H]1C(=O)N[C@@H](Cc1ccccc1)C(=O)O)[C@@H](C)CC [Nle1-AngIV, reference compound] (H-[Nle]YIHPF-OH; N-terminus and C-terminus assumed) | 97.38 | 94.2 | 95.1 | 36 | 31 | 39.4 spines/50 μm and 39 spines/50 μm |  | 
5.5 | concentrated in multiple brain regions | 40 | 1687 | CCCCCC(=O)N[C@@H](Cc1ccc(O)cc1)C(=O)N[C@H](C(=O)NCCCCCC(N)=O)[C@@H](C)CC [Dihexa, N-hexanoic-Tyr-Ile-(6)-aminohexanoic amide] (Hexanoyl-Tyr-Ile-[Ahx]-NH2) | 98.71 | 96.3 | 94.4 | 43 | 37 | 44.2 spines/50 μm and 44 spines/50 μm | dramatically augment the ability of HGF to activate c-Met; also recorded: work synergistically to activate c-Met; also recorded: enhances the activity of HGF shifting its concentration curve to the left | preformed significantly better in the water maze than untreated rats; also recorded: performed significantly better than untreated controls; also recorded: significantly improved water maze performance
